The test system of the assay is mice. The experiment in a line: Neuropharmacological Assay (SmartCube): automated behavioral signature of compound-treated mice compared with a database of reference drug classes. The conditions noted are these: for minimal effective dose: Mus musculus, ip. It counts as in vivo. From the text: Neurosci. 2011 Sep. 9; 5: 103 (doi: 10.3389/fnins.2011.00103) (“Roberds”). As reported in Roberds, because psychiatric diseases generally result from disorders of cell-cell communication or circuitry, intact systems are useful in detecting improvement in disease-relevant endpoints. These endpoints are typically behavioral in nature, often requiring human observation and interpretation. To facilitate testing of multiple compounds for behavioral effects relevant to psychiatric disease, PsychoGenics, Inc. (Tarrytown, NY, “PGI”) developed SmartCube™ an automated system in which behaviors of compound-treated mice are captured by digital video and analyzed with computer algorithms. (D. Brunner et al. Drug Discov. Today 2002, 7:S107-S112). PGI Analytical Systems uses data from SmartCube™ to compare the behavioral signature of a test compound to a database of behavioral signatures obtained using a large set of diverse reference compounds. (The composition of the database as well as validation of the method is further described in Roberds). In this way, the neuropharmacological effects of a test compound can be predicted by similarity to major classes of compounds, such as antipsychotics, anxiolytics and antidepressants.
The SmartCube™ system produces an activity signature indicating the probability that the activity of the test compound at the administered dose matches a given class of neuropharmacological agents. (See, e.g., Roberds, FIGS. 2 and 3). The test compound is simultaneously compared against multiple classes of agents; thus, a separate probability is generated for each behavioral effect measured (e.g., anxiolytic activity, analgesic activity, etc.). In table 2 below, these probabilities are reported for each behavioral effect measured as described in Table 1 below.
Provided compounds were dissolved in a mixture of Pharmasolve™ (N-methyl-2-pyrrolidone), polyethylene glycol and propylene glycol, and were injected i.p. 15 min. before the behavioral test. For each compound, injections were administered at 3 different doses. For each behavioral effect measured, results for the 3.0 mg/kg dose are presented. The potency of many of the compounds in the table was also determined in the SmartCube™ system. Test compounds were routinely examined at dose levels of 0.3, 1, 3 and 10 mg per kg (mpk), although the dose range was increased or decreased, if necessary, to obtain a full dose response curve. A compound's minimal effective dose (MED) is a measure of the compound's potency. The MED was defined as the dose (in mpk) having 45% or more total activity in SmartCube. If only one dose was tested, that dose is shown in the MED column of Table 2 even though the dose is not known to be the MED.

Where [1] appears, read: dose having 45% or more total activity in SmartCube, i.p., if only one dose was tested, that dose is shown, read-out: MED (minimal effective dose).
Where [2] appears, read: probability that activity matches this class of agents, 3.0 mg/kg i.p., 15 min before test.
The mark [3] stands for this setting: minimal effective dose: dose having 45% or more total activity in SmartCube, i.p., if only one dose tested, that dose is shown, read-out: MED.
Setting [4] is: SmartCube class probability, 3.0 mg/kg i.p., 15 min before test.
[5] abbreviates: SmartCube class probability, 3.0 mg/kg i.p., 15 min before test, hydrochloride, 3 mg/kg.
Where [6] appears, read: SmartCube probability class, 3.0 mg/kg dose, i.p. 15 min before the behavioral test.
[7] abbreviates: SmartCube probability class, 3.0 mg/kg dose, i.p. 15 min before the behavioral test, formate salt, 3 mg/kg.
Setting [8] is: probability that activity matches this class of agents, 3.0 mg/kg i.p., 15 min before test, hydrochloride, 3 mg/kg.
Where [9] appears, read: minimal effective dose: dose having 45% or more total activity in SmartCube, i.p., if only one dose was tested, that dose is shown, read-out: MED.

Structures are written as SMILES. Structures can show the parent of a compound that is named as a salt. Where two headings read alike, the source gives them in different places.

On to `CNC1COc2csc(C#N)c2C1` (stereo not drawn) [Compound 139, 3-(methylamino)-3,4-dihydro-2H-thieno[3,4-b]pyran-5-carbonitrile hydrochloride], for which the minimal effective dose under setting [1] amounted to 0.3 mg/kg. Moreover, under setting [2], the AD entry is “++ (≥24%)”, the AG result is reported as “ND (^ <4%)”, the AN result is “ND (^ <4%)” and the AP entry is “ND (^ <4%)”. Besides, under setting [2], the AX entry was “ND (^ <4%)”, the CE result is recorded as “ND (^ <4%)”, the HL result is recorded as “ND (^ <4%)” and the MS entry is on record as “ND (^ <4%)”. Besides, under setting [2], the PS result was “ND (^ <4%)”, the SH entry is “ND (^ <4%)” and the UK result is “++ (≥24%)”.
`CNC1CCc2cc(Cl)sc2C1` (single isomer, unassigned) [Compound 145, 2-chloro-N-methyl-4,5,6,7-tetrahydrobenzothiophen-6-amine hydrochloride]: under setting [3], the minimal effective dose worked out at 3 mg/kg. Under setting [4], the AG result is “ND (^ <4%)”, the AN entry is given as “ND (^ <4%)”, the AP result is given as “ND (^ <4%)” and the AX entry is on record as “ND (^ <4%)”. Also, under setting [4], the CE result was “ND (^ <4%)”, the HL result is recorded as “ND (^ <4%)”, the MS result is “ND (^ <4%)” and the PS result is listed as “ND (^ <4%)”. For the same molecule, the SH entry under setting [4] is “ND (^ <4%)”. Under setting [5], the AD result is on record as “++++ (≥74%)” and the UK result was “ND (^ <4%)”.
Turning to `NC1CCc2scc(F)c2C1` (single isomer, unassigned) [Compound 191, 3-fluoro-4,5,6,7-tetrahydrobenzothiophen-5-amine hydrochloride], under setting [4], the AX result is “ND (^ <4%)”, the HL result is on record as “ND (^ <4%)”, the MS result is recorded as “ND (^ <4%)” and the SH result was “ND (^ <4%)”. Under setting [5], the AD entry is reported as “++ (≥24%)”, the AG result was “+ (≥4%)”, the AN result is listed as “+ (≥4%)” and the AP entry is “+ (≥4%)”. Moreover, under setting [5], the CE result was “+ (≥4%)”, the PS entry is listed as “+ (≥4%)” and the UK entry is “ND (^ <4%)”. For the same molecule, the MED (minimal effective dose: dose having 45% or more total activity in SmartCube, i.p., if only one dose tested, that dose is shown, hydrochloride) is 1 mpk.
For the molecule `CNC1COc2sccc2C1` (single isomer, unassigned) [Compound 294, N-methyl-3,4-dihydro-2H-thieno[2,3-b]pyran-3-amine formate salt], under setting [6], the AD entry is on record as “ND (^ <4%)”, the AG entry was “ND (^ <4%)”, the AN result was “ND (^ <4%)” and the AX result is “ND (^ <4%)”. Under setting [6], the CE entry is “ND (^ <4%)”, the HL entry is “ND (^ <4%)”, the MS entry is reported as “ND (^ <4%)” and the PS result was “ND (^ <4%)”. Besides, the SH entry under setting [6] is recorded as “ND (^ <4%)”. Further, under setting [7], the AP result is reported as “ND (^ <4%)” and the UK result is given as “+ (≥4%)”. Moreover, the MED (minimal effective dose: dose having 45% or more total activity in SmartCube, i.p., if only one dose was tested, that dose is shown, formate salt) is listed as more than 3 mpk.
`Cc1sc2c(c1F)CC(N)CC2` (stereo not drawn) [Compound 214, 3-fluoro-2-methyl-4,5,6,7-tetrahydrobenzothiophen-5-amine hydrochloride]: under setting [3], the minimal effective dose is more than 3 mg/kg. Under setting [4], the AD entry is “ND (^ <4%)”, the AG result is recorded as “ND (^ <4%)”, the AN entry was “ND (^ <4%)” and the AP result is “ND (^ <4%)”. Under setting [4], the AX entry was “ND (^ <4%)”, the CE entry is reported as “ND (^ <4%)”, the HL result was “ND (^ <4%)” and the MS result is “ND (^ <4%)”. Under setting [4], the PS entry is listed as “ND (^ <4%)”, the SH entry is reported as “ND (^ <4%)” and the UK result is “+ (≥4%)”.
For the molecule `CCc1scc2c1CCC(NC)C2` (single isomer, unassigned) [Compound 114, 1-ethyl-N-methyl-4,5,6,7-tetrahydro-2-benzothiophen-5-amine hydrochloride], for the setting “dose having 45% or more total activity in SmartCube, i.p., if only one dose was tested, that dose is shown, hydrochloride”, the “MED (minimal effective dose)” value is reported as 3 mpk. For the same molecule, under setting [2], the AG entry is “ND (^ <4%)”, the AN entry is reported as “ND (^ <4%)”, the AX result was “ND (^ <4%)” and the CE entry is on record as “ND (^ <4%)”. Moreover, under setting [2], the HL result is listed as “ND (^ <4%)”, the MS entry is listed as “ND (^ <4%)”, the PS entry is recorded as “ND (^ <4%)” and the SH result was “ND (^ <4%)”. The UK entry under setting [2] is reported as “ND (^ <4%)”. Moreover, under setting [8], the AD entry is on record as “+++ (≥49%)” and the AP result was “+ (≥4%)”.
`CNC1COc2scc(C(F)(F)F)c2C1` (single isomer, unassigned) [Compound 289, N-methyl-5-(trifluoromethyl)-3,4-dihydro-2H-thieno[2,3-b]pyran-3-amine hydrochloride]: under setting [9], the minimal effective dose was more than 3 mg/kg. Under setting [6], the AD result is given as “ND (^ <4%)”, the AG result was “ND (^ <4%)”, the AN result is “ND (^ <4%)” and the AP entry is reported as “ND (^ <4%)”. Under setting [6], the AX result is “ND (^ <4%)”, the CE result is on record as “ND (^ <4%)”, the HL entry is given as “ND (^ <4%)” and the MS entry was “ND (^ <4%)”. Further, under setting [6], the PS entry is recorded as “ND (^ <4%)”, the SH result is given as “ND (^ <4%)” and the UK result is recorded as “+ (≥4%)”.
In the case of `CNC1CCc2c(sc(C)c2C)C1` (single isomer, unassigned) [Compound 42, N, 2,3-trimethyl-4,5,6,7-tetrahydrobenzothiophen-6-amine hydrochloride], the minimal effective dose under setting [1] is 3 mg/kg. Besides, under setting [2], the AD result is reported as “++++ (≥74%)”, the AG entry is “ND (^ <4%)”, the AN result is given as “ND (^ <4%)” and the AP result was “ND (^ <4%)”. In addition, under setting [2], the AX result was “ND (^ <4%)”, the CE entry was “ND (^ <4%)”, the MS entry is “ND (^ <4%)” and the PS result is given as “ND (^ <4%)”. Under setting [2], the SH entry is listed as “ND (^ <4%)” and the UK entry was “ND (^ <4%)”. The HL entry under setting [8] is given as “ND (^ <4%)”.
As to `CNC1(C)Cc2ccsc2C1` (stereo not drawn) [Compound 328, N, 5-dimethyl-5,6-dihydro-4H-cyclopenta[b]thiophen-5-amine hydrochloride], the minimal effective dose under setting [9] was 3 mg/kg. Under setting [6], the AD entry is “++ (≥24%)”, the AG result is reported as “ND (^ <4%)”, the AN result is “ND (^ <4%)” and the AP result is recorded as “ND (^ <4%)”. Also, under setting [6], the AX entry was “+ (≥4%)”, the CE entry was “ND (^ <4%)”, the HL entry is listed as “+ (≥4%)” and the MS entry was “ND (^ <4%)”. Further, under setting [6], the PS result was “++ (≥24%)”, the SH result is “ND (^ <4%)” and the UK result was “+ (≥4%)”.
For `CNC1COc2scc(C(F)(F)F)c2C1` (racemic) [Compound 288, N-methyl-5-(trifluoromethyl)-3,4-dihydro-2H-thieno[2,3-b]pyran-3-amine hydrochloride], the minimal effective dose under setting [9] is more than 3 mg/kg. Also, under setting [6], the AD entry is given as “ND (^ <4%)”, the AG entry was “ND (^ <4%)”, the AN result is “ND (^ <4%)” and the AP entry is listed as “ND (^ <4%)”. For the same molecule, under setting [6], the AX entry is reported as “ND (^ <4%)”, the CE result is given as “ND (^ <4%)”, the HL result is on record as “ND (^ <4%)” and the MS result was “ND (^ <4%)”. Besides, under setting [6], the PS entry was “ND (^ <4%)”, the SH entry is listed as “ND (^ <4%)” and the UK result is recorded as “ND (^ <4%)”.

The values above are taken from US20260274814A1, “THIENYL COMPOUNDS FOR THE TREATMENT OF A CENTRAL NERVOUS SYSTEM DISEASE OR DISORDER” (Coreterra Therapeutics, Inc., priority 2023, published 2026).
